From US10596109B2 (Abela Pharmaceuticals, Inc., priority 2009, dated 2020)
Like-named read-outs stand apart in the source and are kept apart here.

What was measured:
S. pneumonia [1] = assay: Bacterial viability by bioluminescent ATP assay, 7 hours culture
S. pyogenes [2] = assay: Bacterial viability by bioluminescent ATP assay, 18 hours culture; settings: MSM alone at 8%
S. pneumonia [3] = settings: Streptococcus pneumonia, 7 h
S. pyogenes [4] = settings: Streptococcus pyogenes, 18 h

CS(C)(=O)=O [MSM, Methylsulfonylmethane]
Reduction in bacterial viability (S. pneumonia [1]; MSM 5% alone): ~5% | S. pneumonia viability (S. pneumonia [1]; MSM 10%): 48.57% | S. pneumonia viability (S. pneumonia [1]; MSM 20%): 39.08% | Reduction in bacterial viability (estimated) (S. pyogenes [2]): approximately 89%

C[S+](C)[O-] [DMSO, Dimethyl sulfoxide]
S. pneumonia viability (S. pneumonia [3]; 5 %): 75.45% | S. pneumonia viability (S. pneumonia [3]; 10 %): 40.18% | S. pyogenes viability (S. pyogenes [4]; 0.63 %): 100% | S. pyogenes viability (S. pyogenes [4]; 1.25 %): 100% | S. pyogenes viability (S. pyogenes [4]; 10 %): 14.50% | S. pyogenes viability (S. pyogenes [4]; 20 %): 5.14% | S. pyogenes viability (S. pyogenes [4]; […]): 100% | Reduction in bacterial viability (S. pneumonia [1]; DMSO 5% alone): approximately 25%
